Entries after “also recorded” stand apart in the source; their conditions may differ.
Assays:
[1] = system: α-galactosidase A (GLA) activity in Fabry's cell line DMN-1; experiment: GLA activity in Fabry's cells after ODSA; type: cell-based, human
Source text: Cell line DMN-1, a human fibroblast cell line derived from a human patient with Fabry's disease, is obtained from the National Institutes of Health (NIH). These cells are used to measure the efficiency of correction of a mutant allele of α-galactosidase A (GLA) using methods of the present invention. The specific disease-causing mutation in the Fabry's cell line used herein is A143P, caused by a G→C mutation in the gene. See Branton et al., Medicine (Baltimore) (2002) 81(2): 122-38.
All four oligonucleotides are used to effect ODSA substantially as described in Example 1, with the exception that cells are transfected with oligonucleotides, rather than electroporated. Oligos are added at 5 μg, 10 μg or 30 μg per reaction. After ODSA is performed, cells are cultured and assayed for GLA activity according to the method of Brady, as described in Medin et al., Proc. Natl. Acad. Sci. (USA) (1996) 93:7917-22, the disclosure of which is incorporated herein by reference in its entirety. The GLA activity is used as a measure of gene correction by comparing the activities in treated versus untreated cultures. The correction efficiency is subsequently confirmed by sequencing of the locus of mutation in a number of treated cells.
[…] Unlike the experiments involving correction of eGFP in DLD-1-1 cells described in Example 1, however, certain of the agents (VPA, caffeine, TSA) in the experiments in this example are not added before transfection, but are instead added only after transfection, during the recovery period.
The means of introducing oligonucleotide into the target cells also differs from previous examples, with transfection in the presence of the transfection enhancing agent FuGENE™ 6 (FG) (Roche Diagnostics Corp., Indianapolis, Ind., USA) being used rather than electroporation. Each transfection reaction includes 100 μl of target cells and 12 μl of FG unless otherwise indicated, despite the fact that FG is not explicitly listed for each datapoint in the relevant figures. Otherwise the procedures used in the DLD-1-1 experiments and the Fabry's experiments are similar.
The results of a further series of experiments are shown at FIG. 15D, where the data are presented as GLA activity as nanomolar (nM) concentration of the product of the GLA assay generated per hour per unit protein concentration (as are the data in FIGS. D and E).

[2] = system: homologous recombination (HR); conditions: via inhibition of ATM kinase / p53 ser-15 phosphorylation; cited from earlier work
[3] = system: mutant eGFP gene in DLD-1-1 cells; experiment: eGFP gene correction (oligonucleotide-directed sequence alteration) in DLD-1-1 cells, FACS readout; type: cell-based
Protocol: Cell line and culture conditions: DLD-1 cells are obtained from ATCC (American Type Cell Culture, Manassas, Va.). DLD-1 integrated clone 1 (DLD-1-1) is obtained by integration of the vector pEGFP-N3 containing a single point mutation (TAG) in the eGFP gene, as described in copending U.S. patent application Ser. No. 10/986,418, filed Nov. 10, 2004 (“Mammalian Cell Lines for Detecting, Monitoring, and Optimizing Oligonucleotide-Mediated Chromosomal Sequence Alteration”). Cells are grown in RPMI 1640 medium with 2 mM glutamine, 4.5 g/L glucose, 10 mM HEPES, 1 mM sodium pyruvate and supplemented with 10% FBS. Cells are maintained at 5% CO2, 37° C. and under selection in 200 μg/ml G418 (Gibco, Invitrogen Co., Carlsbad, Calif.).
eGFP gene correction: Cells grown in complete medium supplemented with 10% FBS are trypsinized and harvested by centrifugation. The cell pellet is resuspended in serum-free medium at a density of 1×10^6 cells/100 μl and transferred to a 4 mm gap cuvette (Fisher Scientific, Pittsburgh, Pa.). The oligonucleotide is then added at a concentration of 4 μM and the cells are electroporated (LV, 250V, 13 msec, 2 pulses, 1 second interval) using a BTX ECM830 apparatus (BTX, Holliston, Mass.). The cells are then transferred to a 60 mm dish containing fresh medium supplemented with 10% FBS and incubated for 48 hrs at 37° C. before harvesting for FACS analysis.
The percentage of converted cells in a whole population is then calculated by CellQuest™ (Becton Dickinson) and GFP/PI programs. The correction efficiency is determined by dividing the number of eGFP positive cells by the number of cells analyzed in each experiment (usually 50,000 cells). Each clone is tested three times to determine the standard deviation of the correction efficiency, with standard deviation calculated using Microsoft Excel.
The experimental strategy involves the introduction of oligonucleotides into DLD-1-clone 1 cells by electroporation followed by phenotypic readout of the corrected eGFP gene, 48 hours later. The correcting oligonucleotide (EGFP3S/72NT) is 72 bases in length (72-mer), complementary to the non-transcribed strand of the mutant eGFP gene but designed to create a single mismatch in the third base of codon 67 (see FIG. 1A). It directs conversion of a TAG→TAC codon which enables phenotypic expression of eGFP, which can be detected by FACS. FIG. 1B outlines the sequence of the target gene, the 72-mer and a nonspecific 74-mer used as a control.
Oligonucleotide-Directed Sequence Alteration: The resulting synchronized populations of cells, and asynchronous controls, are grown in complete medium supplemented with 10% FBS and trypsinzed and harvested by centrifugation at 1500 rpm for 5 minutes. The cell pellet is resuspended in fresh serum-free medium at a density of 2×10^6 cells/100 μl. The entire cell suspension is mixed with 20 μg of EGFP/72NT and transferred into a 4 mm gap cuvette (Fisher Scientific, Pittsburgh, Pa., USA) followed by electroporation with two 250V pulses, each 13 ms in duration, with one second between pulses, unipolar.
Cells are incubated at room temperature for 30 min. […] Frequency of converted cells are calculated by CellQuest™ and GFP/PI programs.
Double Thymidine Block: Cells are synchronized in G1 or at the G1/S border by a double thymidine block. Twenty-four hours prior to the addition of any agent (HU, etc.), cells are plated at a density of 0.5×10^6 cells per 100 mm dish, followed by incubation in 2 mM thymidine (Sigma) for 16 hrs, washed and released in fresh medium for 10 hrs, then incubated in 2 mM thymidine for an additional 15 hrs.
FACS is then used to analyze 50,000 cells from each population to determine the percentage of cells expressing functional eGFP, as described in Example 1.

Cn1c(=O)c2c(ncn2C)n(C)c1=O [caffeine]
effect on GLA activity ([1]; synchronized cells treated with 0.3 mM HU, 4 mM caffeine during recovery period): modest effect on GLA activity | effect on ddC-enhanced GLA activity ([1]; synchronized cells, 500 μM ddC, 4 mM caffeine or 100 ng/ml TSA during recovery period): eliminate the ability of 500 μM ddC to enhance GLA activity | reduction of the level of HR [2]: 60-90% | effect on correction efficiency, recovery phase ([3]; 4 mM caffeine after electroporation, up to 48 hrs): dramatically increases correction efficiency; also recorded: stimulates correction; also recorded: the greater the enhancement of correction efficiency | effect on MMS-enhanced correction ([3]; 4 mM caffeine in addition to 0.2 μM MMS): completely suppressing the enhancement otherwise caused by MMS | effect on correction efficiency ([3]; 4 mM caffeine pre-treatment, with or without 0.2 μM MMS): lower than the control experiment; also recorded: ineffective at increasing the efficiency of gene repair | effect on correction efficiency, pretreatment ([3]; 4 mM caffeine prior to electroporation): decreases correction efficiency; also recorded: inhibits oligonucleotide-directed gene correction; also recorded: reduction in basal repair levels | correction levels ([3]; caffeine added to ddC-treated cells, pretreatment (FIG. 20)): 0.6% | effect on ddC-stimulated gene repair ([3]; inhibitor added with ddC before electroporation (FIG. 20)): blocks the stimulation in gene repair caused by ddC treatment; also recorded: knocks down correction induced by ddC

From patent US20070072815A1, “Methods and kits to increase the efficiency of oligonucleotide-directed nucleic acid sequence alteration” (priority 2004, published 2007)
